Data published in patent publication US11766410B2, “Composition for preventing or treating dry eye syndrome containing α-humulene as active ingredient” (INJE UNIVERSITY INDUSTRY-ACADEMIC COOPERATION FOUNDATION, priority 2018, dated 2023).

What was measured:
Type in all cases: in vivo, rat
[1] = tested on: MUC1; experiment: Mucin gene expression by real-time PCR in conjunctival epithelium after eye drop administration; settings: 10 μl of 0.5 mg/ml eye drops twice a day for 5 days, right eye vs saline left eye; corrected by β-actin; FIG. 1
Description: (§1) α-humulene was administered to the eye in the following way: 6 male rats with a body weight of about 200 g were used, and the left eye was designated as the control group and the right eye was designated as the experimental group. Samples as eye drops were administered to the eye twice a day for 5 days and 10 μl of physiological saline was administered to the left eye (control group) and 10 μl of 0.5 mg/ml α-humulene diluted in physiological saline was administered to the right eye (experimental group) as eye drops. Animals were sacrificed to extract the conjunctival epithelium containing the fornix conjunctiva from the eyes and the extracted tissue was isolated and used for molecular biological analysis.
(§2) RNA was extracted from the ocular tissues of rats according to the manufacturers instructions using RNeasy mini kit from Qiagen (USA). The cDNA was synthesized using the cDNA synthesis kit of Qiagen (USA) from the isolated RNA, and then it was used for real-time polymerase chain reaction (real-time PCR). Real-time PCR was performed according to the manufacturer's instructions using Qiagen's Rotor-Gene Q 2 plex real-time DNA amplifier and Qiagen's two-step PCR SYBR kit, and the amount of amplified DNA was quantitatively compared. Specifically, after pre-denaturation at 95° C. for 5 minutes based on the cycling protocol, each 40 cycles were repeated at 95° C. for 5 seconds and at 60° C. for 10 seconds, and it was performed in the order of the melting step rising for 3 minutes from 60° C. to 95° C. The product amplified by the real-time PCR was quantified using the Delta delta Ct method, and corrected by the expression amount of β-actin for each sample.

[2] = tested on: MUC4; experiment: as above; settings: 10 μl of 0.5 mg/ml eye drops twice a day for 5 days, right eye vs saline left eye; corrected by β-actin; FIG. 1
Description: as §1, §2

[3] = tested on: MUC6; experiment: as above; settings: 10 μl of 0.5 mg/ml eye drops twice a day for 5 days, right eye vs saline left eye; corrected by β-actin; FIG. 1
Description: as §1, §2

[4] = tested on: animal model of dry eye; experiment: Inhibition and treatment effect on dry corneal epithelial damage, tear amount by tear test strip; settings: 10 μl of 0.5 mg/ml eye drop solution for 2 weeks, FIG. 2
Description: For experiments on dry corneal epithelial damage, an animal model of dry eye was prepared. It was induced by instill 1% atropine sulfate and 0.1% benzalkonium chloride twice a day for 2 weeks. After administration of the dry eye inducer, the experimental animals were applied by ocular administration according to the above-described administration method at an interval of 1 hour.
After administration of the sample for 2 weeks, the animals were anesthetized with isoflurane, and then the tear amount of each rat was measured using a Shrimer tear test strip.

## C/C1=C\CC/C(C)=C/CC(C)(C)/C=C/C1 [α-humulene]
[1]
  expression of MUC1: increased significantly
[2]
  expression of MUC4: increased significantly
[3]
  expression of MUC6: increased significantly
[4]; AS/BAC-induced dry eye, tear test strip
  amount of tears: significant difference in the amount of tears
[4]; dry eye induced by 1% atropine sulfate/0.1% benzalkonium chloride (AS/BAC)
  therapeutic effect on dry corneal epithelial damage: showed the therapeutic effect of the corneal epithelium
